Test results taken from patent publication US6069167A, “Use of antioxidant agents to treat cholestatic liver disease” (priority 1997, dated 2000).

What was measured:
Assay type in all cases: in vivo, male Sprague-Dawley rats
hepatic mitochondria = assay: Lipid-conjugated dienes of hepatic mitochondria (lipid peroxidation)
Procedure: Hepatic Mitochondria Isolation
Mitochondria were isolated from 10 grams of fresh liver from individual rats by a modification of a previously described method^27. Briefly, the liver was gently homogenized in a loose-fitting Potter-Elvehjm homogenizer in buffer containing 225 mM mannitol, 70 mM sucrose, 3 mM KH2 PO4, 2mM EDTA, 0.1% BSA, 5 mM MgCl2 (pH 7.0), filtered through cheesecloth and centrifuged at 400g×10 minutes. The supernatant was centrifuged at 10,000g for 10 minutes. The supernatant was aspirated and the pellet resuspended and centrifuged at 10,000g for 10 minutes. The resulting mitochondrial pellet was resuspended in 15 ml of buffer, divided into three tubes and added to digitonin (Sigma Chemical Company, St Louis, Mo., 0.29 mg for each gram of original liver) on wet ice×20 minutes, in order to minimize any contamination by lysosomes^28. The resulting mitochondrial preparation was washed two times in the original buffer and centrifuged at 10,000g for 10 minutes. Samples of the pellet were taken for enzyme marker analysis. Two more washes were then performed using a buffer containing 50 mM MOPS/100 mM KCI, yielding the final mitochondrial pellet.
Fresh mitochondria were analyzed for lipid peroxidation as an index of oxidant damage by the lipid-conjugated diene method of Recknagel and Ghoshal^35 with the modification of Bacon et al^36. Briefly, lipids were extracted from mitochondria pellets with chloroform and methanol (2:1, vol/vol), and the lipid in chloroform was dried under a stream of oxygen-free nitrogen^27. The dried lipid was redissolved in 1.5 ml of spectrophotometric grade cyclohexane. Absorbance from 220 to 275 nm was recorded against a cyclohexane blank on a Lambda 2 UV/is Spectrometer (Perkin-Elmer Corp., Norwalk, Conn.). Lipid concentration was approximately 0.5 mg/mi of cyclohexane. After the UV measurements, a 250 μl aliquot from each sample was analyzed for total lipid content by the method of Chiang et al.^37, and absorbance measurements were normalized to a denominator of 1.0 mg lipid per ml of cyclohexane. Lipid peroxidation was estimated by calculating the difference in absorption at 233 nm (the peak absorbance for conjugated dienes) between each rat and the mean of the values from control rats.
(§1) Because serum AST and ALT concentrations peaked at 4 hours, further evaluation of liver injury was performed at that time point Total concentrations (conjugated+free bile acids) of individual bile acids were measured in serum obtained at 4 hours by gas chromatography-mass spectroscopy (GC-MS), as previously described^30. Briefly, after serum samples were extracted with the addition of the internal standard 7-alpha, 12-alpha, dihydroxy-5 beta cholanic acid, trimethylsilyl esterification was performed. Individual bile acids were then quantified by GC or GC-MS using a Hewlett-Packard 5790 flame ionization detector equipped with a 30 meter DB-1 capillary column with internal diameter of 0.25 mm and a film thickness of 0.25 micrometers (J & W Scientific, Folsom, Calif.). For GC-MS measurements, a Hewlett-Packard 5970-A mass selective detector operating in selective ion monitoring mode was used. Results were expressed as μmol/L for each individual bile acid.
Rats were divided into two treatment groups. One group was pretreated with parenteral Vitamin E (all-rac-alpha tocopherol, Ephynal, Hoffmann-LaRoche,Nutley, N.J.). The other group was not pretreated. […]

[1] = Serum bile acid concentrations four hours after intravenous TCDC by GC-MS
Description: (§2) Young adult male Sprague-Dawley rats (150-180 gram weight) purchased from Sasco, Inc. (Omaha, Nebr.) were fed Purina Lab Chow (Ralston Purina Co., Chicago, Ill.) ad libitum for 2-3 weeks and housed in polyethylene cages with stainless steel tops on a 12-hour light-dark cycle. All rats received humane care in compliance with the guidelines of the Animal Use in Research Committee of the University of Colorado Health Sciences Center. Rats were then randomly assigned (4-5 per group) to receive 0 (vehicle only), 5, 10, or 20 μmol of taurochenodeoxycholic acid (TCDC)/100 gram body weight. TCDC is a conjugate of the bile acid most implicated in cholestatic liver injury9,11,12. TCDC was solubilized in 5% dextrose, 10% BSA, and 0.45% normal saline. TCDC was administered while rats were under light methoxyflurane anesthesia as an intravenous bolus of the desired dose in 1 to 2 minutes through the tail vein. TCDC dosing was performed between 7 and 9 am. Rats recovered from the injection uneventfully and blood was obtained at 0, 4, 8, 12 and 24 hours after the injection for determination of AST, ALT total bilirubin and alkaline phosphatase by an automated chemical analyzer (Hitachi 747 Chemical Analyzer).
as §1

hepatic toxicity (liver) = assay: Dose response of intravenous TCDC and hepatic toxicity (serum AST, ALT, bilirubin, alkaline phosphatase); conditions: for Serum ALT / Serum AST: mean ± SEM, n = 4
Description: as §2

[2] = 4 h after i.v. TCDC 10 μmol/100 gram, mean ± SEM, n = 5, P < 0.05 versus vehicle
[3] = 4 h after i.v. TCDC 10 μmol/100 gram, mean ± SEM, n = 5, conjugates plus unconjugates
[4] = i.v. bolus TCDC in rats, data not shown
[5] = i.v. bolus TCDC in rats, dose-dependent

Hepatic mitochondrial lipid-conjugated dienes, change versus vehicle (hepatic mitochondria; 4 h after TCDC 10 μmol/100 gram): significant elevations | Lipid-conjugated dienes (hepatic mitochondria; Control/TCDC, n = 13, 4 h): 0.24 ± 0.02 delta abs. 233 nm/mg lipid | Serum individual bile acids, change versus vehicle ([1]; 4 h after i.v. TCDC 10 μmol/100 gram): significant increases in most bile acids | Serum alpha-muricholic acid concentration [1, 2]: 77.4 ± 15.9 µmol/L | Serum beta-muricholic acid concentration [1, 2]: 12.4 ± 3.3 µmol/L | Serum cholic acid concentration [1, 2]: 134.8 ± 30.2 µmol/L | Serum total bile acids concentration [1, 2]: 277.8 ± 49.0 µmol/L | Serum deoxycholic acid concentration [1, 3]: 4.8 ± 1.2 µmol/L | Serum lithocholic acid concentration [1, 3]: 0.6 ± 0.2 µmol/L | Serum ursodeoxycholic acid concentration [1, 3]: 4.4 ± 0.4 µmol/L | Lithocholate conjugates, change ([1]; in vivo model, TCDC): lack of substantial elevation
SMILES: C[C@H](CCC(=O)NCCS(=O)(=O)O)[C@H]1CC[C@H]2[C@@H]3[C@H](O)C[C@@H]4C[C@H](O)CC[C@]4(C)[C@H]3CC[C@]12C [TCDC, taurochenodeoxycholic acid]
CDC concentrations, change ([1]; in vivo model, TCDC): elevated to a similar extent as the other bile acids | Serum ALT (hepatic toxicity (liver); TCDC dose 5 i.v., 0 h): 52 ± 6 IU/L | Serum AST (hepatic toxicity (liver); TCDC dose 5 i.v., 0 h): 73 ± 9 IU/L | Serum ALT (hepatic toxicity (liver); TCDC dose 5 i.v., 4 h): 92 ± 23 IU/L | Serum AST (hepatic toxicity (liver); TCDC dose 5 i.v., 4 h): 121 ± 24 IU/L | Serum ALT (hepatic toxicity (liver); TCDC dose 5 i.v., 8 h): 88 ± 12 IU/L | Serum AST (hepatic toxicity (liver); TCDC dose 5 i.v., 8 h): 110 ± 12 IU/L | Serum ALT (hepatic toxicity (liver); TCDC dose 5 i.v., 12 h): 70 ± 7 IU/L | Serum AST (hepatic toxicity (liver); TCDC dose 5 i.v., 12 h): 105 ± 12 IU/L | Serum ALT (hepatic toxicity (liver); TCDC dose 5 i.v., 24 h): 72 ± 7 IU/L | Serum AST (hepatic toxicity (liver); TCDC dose 5 i.v., 24 h): 89 ± 3.5 IU/L | Serum ALT (hepatic toxicity (liver); TCDC dose 10 i.v., 0 h): 53 ± 3 IU/L | Serum AST (hepatic toxicity (liver); TCDC dose 10 i.v., 0 h): 92 ± 8 IU/L | Serum ALT (hepatic toxicity (liver); TCDC dose 10 i.v., 4 h): 1855 ± 701 IU/L | Serum AST (hepatic toxicity (liver); TCDC dose 10 i.v., 4 h): 3679 ± 1105 IU/L | Serum ALT (hepatic toxicity (liver); TCDC dose 10 i.v., 8 h): 1963 ± 701 IU/L | Serum AST (hepatic toxicity (liver); TCDC dose 10 i.v., 8 h): 2233 ± 1906 IU/L | Serum ALT (hepatic toxicity (liver); TCDC dose 10 i.v., 12 h): 492 ± 291 IU/L | Serum AST (hepatic toxicity (liver); TCDC dose 10 i.v., 12 h): 605 ± 249 IU/L | Serum ALT (hepatic toxicity (liver); TCDC dose 10 i.v., 24 h): 198 ± 82 IU/L | Serum AST (hepatic toxicity (liver); TCDC dose 10 i.v., 24 h): 328 ± 82 IU/L | Serum ALT (hepatic toxicity (liver); TCDC dose 20 i.v., 0 h): 64 ± 9 IU/L | Serum AST (hepatic toxicity (liver); TCDC dose 20 i.v., 0 h): 70 ± 6 IU/L | Serum ALT (hepatic toxicity (liver); TCDC dose 20 i.v., 4 h): 1712 ± 554 IU/L | Serum AST (hepatic toxicity (liver); TCDC dose 20 i.v., 4 h): 1456 ± 748 IU/L | Serum ALT (hepatic toxicity (liver); TCDC dose 20 i.v., 8 h): 1238 ± 257 IU/L | Serum AST (hepatic toxicity (liver); TCDC dose 20 i.v., 8 h): 2057 ± 939 IU/L | Serum ALT (hepatic toxicity (liver); TCDC dose 20 i.v., 12 h): 851 ± 167 IU/L | Serum AST (hepatic toxicity (liver); TCDC dose 20 i.v., 12 h): 1282 ± 375 IU/L | Serum ALT (hepatic toxicity (liver); TCDC dose 20 i.v., 24 h): 362 ± 75 IU/L | Serum AST (hepatic toxicity (liver); TCDC dose 20 i.v., 24 h): 399 ± 41 IU/L | Time of peak serum AST and ALT after injection (hepatic toxicity (liver); i.v. bolus TCDC in rats): 4 h | Serum alkaline phosphatase, change (hepatic toxicity (liver); [4]): no significant changes | Total serum bilirubin, change (hepatic toxicity (liver); [4]): no significant changes | Serum ALT concentration, change (hepatic toxicity (liver); [5]): significant rise | Serum AST concentration, change (hepatic toxicity (liver); [5]): significant rise
